Test results: PMC5705267 (Synapse (New York, N.Y.), 2017)

Biological target: GHSR1a (growth hormone secretagogue receptor 1a, ghrelin receptor) (Homo sapiens, UniProt Q92847)
Experiment: aequorin Ca2+ mobilization, antagonism of L-692, […] in HEK293 cells
Assay type: cell-based

Chain of GHSR1a (growth hormone secretagogue receptor 1a, ghrelin receptor) (Q92847 whole entry): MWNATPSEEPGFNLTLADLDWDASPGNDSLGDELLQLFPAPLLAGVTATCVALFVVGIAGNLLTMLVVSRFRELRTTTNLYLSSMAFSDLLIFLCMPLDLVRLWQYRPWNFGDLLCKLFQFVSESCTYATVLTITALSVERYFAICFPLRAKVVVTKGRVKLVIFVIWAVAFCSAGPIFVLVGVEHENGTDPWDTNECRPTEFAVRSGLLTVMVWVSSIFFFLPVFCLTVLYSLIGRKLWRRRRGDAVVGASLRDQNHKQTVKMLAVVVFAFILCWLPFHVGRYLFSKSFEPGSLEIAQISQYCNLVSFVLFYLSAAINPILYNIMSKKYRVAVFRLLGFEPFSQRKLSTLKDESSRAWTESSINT

IC50: 185 nM
SMILES: Cc1nc2ccc(Oc3ccc(F)cc3)cc2c(=O)n1C[C@H]1CCCN(C(C)C)C1 [YIL781]
